Experiment in all cases: NCI-60 cell line screen, 48 h
The subject of experiment [1] is A498 renal.
In experiment [2] the test system is HOP-62 NSCLC.
Experiment [3] concerns SN12C renal.
In experiment [4] the test system is PC-3 prostate.
For experiment [5], the system named is OVCAR-3 ovarian.
Experiment [6] deals with SK-MEL-2 melanoma.
In experiment [7] the test system is U251 CNS.
The subject of experiment [8] is SW-620 colon.
The subject of experiment [9] is MALME-3M melanoma.
Experiment [10] has as its system EKVX NSCLC.

Values joined by “and” are separate entries in the source; they are usually repeats but may differ in a detail not shown here. Equal values may be shown once.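 A five-concentration, 48-hour dose response in 96-well plates underlies each endpoint, interpolated linearly between surrounding concentrations. GI50: concentration for 50% inhibition of growth. At the TGI there is no net growth.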 Where a SMILES comes first, the peptide text is derived from it. [ ]: non-standard residue; d: D form. 2Nal = N[CH](Cc1ccc2ccccc2c1)C(=O)O Where only a bound is given, the exact number is not on record here.

The source of these data is PubChem BioAssay (NCI).

Turning to `O=C(Nc1cccc(Cl)c1)c1cc(N=Nc2ccc([N+](=O)[O-])cc2Cl)ccc1O`, the GI50 in experiment [1] is 1.94 µM; in experiment [2] it was 3.27 µM; in [3] it was 2.86 µM; in [4], 1.94 µM; in experiment [5] it was 1.06 µM; in experiment [6] it was 1.81 µM. The GI50 in experiment [7] was 1.93 µM; in experiment [8], 2.95 µM; in experiment [9] it was 2.17 µM; in experiment [10], 2.16 µM. In addition, the TGI in [1] came to 4.51 µM; in experiment [2] it was 9.46 µM; in experiment [3] it was 8.87 µM; in experiment [4], 6.36 µM; in experiment [5], 4.38 µM; in experiment [6], 4.04 µM. In addition, the TGI was determined as 7 µM in [7], 5.92 µM in experiment [9] and 6.57 µM in experiment [10].
Consider `Cc1cc(NNC(=O)c2ccccc2O)nc(Nc2nc3ccccc3o2)n1`, for which the GI50 in experiment [1] was 1.53 µM; in experiment [2], 0.865 µM; in experiment [3], 1.62 µM; in experiment [4] it was 0.912 µM; in experiment [5], 2.06 µM; in experiment [6] it was 2.24 µM. The GI50 in [7] is 0.628 µM; in [8], 3.03 µM; in experiment [9], 2.98 µM; in experiment [10], 2.81 µM. Also, the TGI in experiment [1] was found to be 3.25 µM; in [2], 13.5 µM; in [3], 19.1 µM; in experiment [4], 13.7 µM; in experiment [5] it was 15.6 µM; in experiment [6] it was 13.3 µM. Further, the TGI in experiment [7] was 13.4 µM; in experiment [8], 17.8 µM; in [9] it was 15.5 µM; in experiment [10], 15.2 µM.
Turning to `COc1ccc(/C=C\c2cc(OC)c(OC)c(OC)c2)c(O)c1O`, the GI50 is 0.247 µM and 0.05 µM in experiment [1]; 1.98 µM in experiment [2]; 0.296 µM in experiment [3]; 0.0695 µM and 0.0832 µM in experiment [5]; 0.0705 µM in experiment [6]; 0.0933 µM in experiment [7]. The GI50 in [8] is 0.0715 µM; in experiment [10] it was 3.76 µM. The TGI in experiment [2] was 68.8 µM and 109 µM; in [3] it was 25.9 µM and 28.4 µM; in experiment [4] it was 36.1 µM; in experiment [5] it was 6.47 µM and 0.77 µM; in [6] it was 33.3 µM and 7.62 µM; in [7], 18.7 µM and 6.09 µM. The TGI was 16.9 µM and 49.9 µM in [8]; 27.1 µM and 129 µM in experiment [9]; 70.1 µM and 96.1 µM in [10].
`C=C1CCC2C3(C)COC(c4ccc(Cl)cc4)OC3CCC2(C)C1/C=C/C1=CCOC1=O` (centres undefined): the GI50 is 2.18 µM in [1]; 26.8 µM in [2]; 7.56 µM in experiment [3]; 1.67 µM in experiment [4]; 7.52 µM in experiment [5]; 17.9 µM in [6]. Further, the GI50 in experiment [7] is 5.68 µM; in experiment [8], over 100 µM; in experiment [9], 11.3 µM; in experiment [10], 0.751 µM. In addition, the TGI in experiment [1] was 31.5 µM; in [2], over 100 µM; in experiment [3], over 100 µM; in [4] it was 69.9 µM; in experiment [5], 56.8 µM; in [6], over 100 µM. The TGI in [7] was 46.2 µM; in experiment [8], over 100 µM; in experiment [9], 71.4 µM; in [10], 29.8 µM.
Consider `C1CCN2CC3CCCN4CCCC(C2C1)C34` (centres undefined), for which the TGI in experiment [1], in experiment [2], in [3], in [4], in experiment [5] and in experiment [6] was over 100 µM in each case. The TGI in [7], in experiment [8], in experiment [9] and in experiment [10] was over 100 µM in each case.
For `CC(C)C(NC(=O)C(CCCCN)NC(=O)C(Cc1c[nH]c2ccccc12)NC(=O)C(Cc1ccc(O)cc1)NC(=O)C(CS)NC(=O)C(N)Cc1ccc2ccccc2c1)C(=O)NC(CS)C(=O)NC(C(N)=O)C(C)O` (centres undefined) (H-[2Nal]CYWKVCT-NH2; configuration not given here), the GI50 in [1], in experiment [2], in experiment [3], in experiment [5], in experiment [6] and in experiment [7] was over 100 µM throughout. Besides, the GI50 in [8] and in [10] was over 100 µM in each case. For the same compound, the TGI in [1] is over 100 µM; in experiment [2], over 100 µM; in experiment [3] it was over 100 µM; in experiment [4] it was over 12.5 µM; in [5], over 100 µM; in experiment [6] it was over 100 µM. The TGI in [7] is over 100 µM; in [8], over 100 µM; in [9], over 12.5 µM; in experiment [10], over 100 µM.
As to `CSc1ccc(C2=NN(C(C)=O)C(c3ccc(F)cc3)C2)cc1` (centres undefined), the GI50 in experiment [1] is 12.5 µM; in experiment [2] it was 16.6 µM; in [3], 1.23 µM; in experiment [4], 12.7 µM; in [5], 16.2 µM; in experiment [6] it was 20.5 µM. The GI50 is 5.96 µM in experiment [7], 17.7 µM in [8], 15.8 µM in experiment [9] and 21.6 µM in [10]. Besides, the TGI worked out at 26.8 µM in [1]; 31.1 µM in experiment [2]; 12.6 µM in [3]; 42.4 µM in experiment [4]; 49.5 µM in experiment [5]; 41.2 µM in [6]. The TGI is 21.4 µM in experiment [7], 40.3 µM in experiment [8], 31.3 µM in experiment [9] and 64.7 µM in experiment [10].
For the compound `NNC(=S)Nc1cccc(Cl)c1`, the TGI is over 100 µM in [1]; over 100 µM in experiment [2]; over 100 µM in experiment [3]; over 100 µM in experiment [4]; 92.3 µM in experiment [5]; over 100 µM in experiment [6]. In addition, the TGI in [7], in experiment [8], in [9] and in [10] was over 100 µM in each case.
